From patent US20200190087A1 (priority 2016, published 2020)
Where two headings read alike, the source gives them in different places.

What was measured:
human μ-opioid receptor = target: T1, human μ-opioid receptor (Homo sapiens, UniProt P35372); test: Human μ-opioid receptor radioligand assay ([3H]-DAMGO); format: binding
T1 construct: expressed in transfected cells; host or cells: CHO-K1
Protocol: Human μ-Opioid Receptor Radioligand Assay
To investigate binding properties of test compounds to human μ-opioid receptor, transfected CHO-K1 cell membranes and [^3H]-DAMGO (Perkin Elmer, ES-542-C), as the radioligand, were used. The assay was carried out with 20 μg of membrane suspension, 1 nM of [^3H]-DAMGO in either absence or presence of either buffer or 10 μM Naloxone for total and non-specific binding, respectively. Binding buffer contained Tris-HCl 50 mM, MgCl2 5 mM at pH 7.4. Plates were incubated at 27° C. for 60 minutes. After the incubation period, the reaction mix was then transferred to MultiScreen HTS, FC plates (Millipore), filtered and plates were washed 3 times with ice-cold 10 mM Tris-HCL (pH 7.4). Filters were dried and counted at approximately 40% efficiency in a MicroBeta scintillation counter (Perkin-Elmer) using EcoScint liquid scintillation cocktail. Preferably, transfected CHO-K1 cell membranes (20 μg) were incubated with 1 nM of [^3H]-DAMGO in assay buffer containing Tris-HCl 50 mM, MgCl2 5 mM at pH 7.4. NBS (non-specific binding) was measured by adding 10 μM Naloxone. The binding of the test compound was measured at five different concentrations. Plates were incubated at 27° C. for 60 minutes. After the incubation period, the reaction mix was then transferred to MultiScreen HTS, FC plates (Millipore), filtered and plates were washed 3 times with ice-cold 10 mM Tris-HCL (pH 7.4). Filters were dried and counted at approximately 40% efficiency in a MicroBeta scintillation counter (Perkin-Elmer) using EcoScint liquid scintillation cocktail.

[1] = target: Human α2δ-1 subunit of Cav2.2 calcium channel (Homo sapiens, UniProt P54289); test: Human α2δ-1 subunit of Cav2.2 calcium channel assay ([3H]-Gabapentin binding); conditions: human α2δ-1 enriched membranes, 15 nM [3H]-Gabapentin, binding expressed as Ki; read-out: α2δ1 binding activity
Protocol: Human α2δ-1 Subunit of Cav2.2 Calcium Channel Assay
Human α2δ-1 enriched membranes (2.5 μg) were incubated with 15 nM of radiolabeled [3H]-Gabapentin in assay buffer containing Hepes-KOH 10 mM, pH 7.4. NSB (non specific binding) was measured by adding 10 μM pregabalin. The binding of the test compound was measured at five different concentrations. After 60 min incubation at 27° C., binding reaction was terminated by filtering through Multiscreen GF/C (Millipore) presoaked in 0.5% polyethyleneimine in Vacuum Manifold Station, followed by 3 washes with ice-cold filtration buffer containing 50 mM Tris-HCl, pH 7.4. Filter plates were dried at 60° C. for 1 hour and 30 μl of scintillation cocktail were added to each well before radioactivity reading. Readings were performed in a Trilux 1450 Microbeta radioactive counter (Perkin Elmer).

[2] = transfected CHO-K1 cell membranes, 1 nM [3H]-DAMGO, binding expressed as Ki, read-out: Mu binding activity

T1 sequence (P35372 whole entry): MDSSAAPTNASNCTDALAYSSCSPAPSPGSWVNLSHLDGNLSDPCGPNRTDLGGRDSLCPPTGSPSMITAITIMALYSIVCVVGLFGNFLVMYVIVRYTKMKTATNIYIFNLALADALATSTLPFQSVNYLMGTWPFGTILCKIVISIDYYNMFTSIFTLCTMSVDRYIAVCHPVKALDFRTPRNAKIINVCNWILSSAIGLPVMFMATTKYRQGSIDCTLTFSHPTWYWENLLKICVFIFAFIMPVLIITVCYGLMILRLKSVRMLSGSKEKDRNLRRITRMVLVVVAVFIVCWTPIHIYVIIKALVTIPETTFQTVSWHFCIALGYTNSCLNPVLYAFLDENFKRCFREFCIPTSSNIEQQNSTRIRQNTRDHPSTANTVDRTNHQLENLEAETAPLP
Sequence of Human α2δ-1 subunit of Cav2.2 calcium channel (P54289 25-1103): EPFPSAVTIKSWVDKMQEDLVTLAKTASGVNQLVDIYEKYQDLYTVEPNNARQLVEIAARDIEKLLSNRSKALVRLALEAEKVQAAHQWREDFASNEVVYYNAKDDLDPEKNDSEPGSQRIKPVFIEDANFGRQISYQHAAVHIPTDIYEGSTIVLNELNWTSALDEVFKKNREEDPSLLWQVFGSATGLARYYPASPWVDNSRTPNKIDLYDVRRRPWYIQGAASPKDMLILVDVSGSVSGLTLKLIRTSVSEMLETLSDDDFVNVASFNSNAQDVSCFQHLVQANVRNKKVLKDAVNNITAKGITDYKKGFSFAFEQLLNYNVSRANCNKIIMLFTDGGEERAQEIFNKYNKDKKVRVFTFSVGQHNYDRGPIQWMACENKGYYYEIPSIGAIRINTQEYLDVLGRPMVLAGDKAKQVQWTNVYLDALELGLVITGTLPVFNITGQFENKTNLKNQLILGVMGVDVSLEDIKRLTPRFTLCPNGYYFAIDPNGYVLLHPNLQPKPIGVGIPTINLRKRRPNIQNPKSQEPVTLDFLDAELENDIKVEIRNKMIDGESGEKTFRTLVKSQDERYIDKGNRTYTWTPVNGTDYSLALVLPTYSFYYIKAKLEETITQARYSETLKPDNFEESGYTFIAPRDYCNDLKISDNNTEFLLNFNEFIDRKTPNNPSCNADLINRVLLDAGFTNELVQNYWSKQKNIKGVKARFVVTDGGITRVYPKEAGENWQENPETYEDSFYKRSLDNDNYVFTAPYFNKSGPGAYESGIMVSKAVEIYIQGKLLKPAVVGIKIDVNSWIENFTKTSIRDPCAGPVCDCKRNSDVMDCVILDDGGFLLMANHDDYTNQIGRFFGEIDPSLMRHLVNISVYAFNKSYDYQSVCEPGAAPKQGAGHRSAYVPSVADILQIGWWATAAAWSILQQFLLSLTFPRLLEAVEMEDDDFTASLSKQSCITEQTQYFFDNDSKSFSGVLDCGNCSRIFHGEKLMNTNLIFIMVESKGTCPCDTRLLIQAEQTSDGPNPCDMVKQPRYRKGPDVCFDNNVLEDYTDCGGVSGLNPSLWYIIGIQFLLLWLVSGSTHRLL

SMILES | Ki [1] | Ki (human μ-opioid receptor; [2]) | Ki (human μ-opioid receptor)
CCOc1ccc(-n2nc3c(C4CCN(Cc5ccccn5)CC4)nnc(C)c3c2C)c(F)c1 [Ex 28, 2-(4-Ethoxy-2-fluorophenyl)-3,4-dimethyl-7-(1-(pyridin-2-ylmethyl)piperidin-4-yl)-2H-pyrazolo[3,4-d]pyridazine] | 500 to 3000 nM |  | < 500 nM
CCOc1ccc(-n2nc3c(C4CCN(Cc5cccnc5)CC4)nnc(C)c3c2C)c(F)c1 [Ex 29, 2-(4-Ethoxy-2-fluorophenyl)-3,4-dimethyl-7-(1-(pyridin-3-ylmethyl)piperidin-4-yl)-2H-pyrazolo[3,4-d]pyridazine] | 500 to 3000 nM | > 500 nM | 
CCOc1ccc(-n2nc3c(C4CCN(Cc5ccncc5)CC4)nnc(C)c3c2C)c(F)c1 [Ex 30, 2-(4-Ethoxy-2-fluorophenyl)-3,4-dimethyl-7-(1-(pyridin-4-ylmethyl)piperidin-4-yl)-2H-pyrazolo[3,4-d]pyridazine] | 500 to 3000 nM | > 500 nM | 
CCOc1ccc(-n2nc3c(C4CCN(Cc5ncccc5O)CC4)nnc(C)c3c2C)c(F)c1 [Ex 31, 2-((4-(2-(4-Ethoxy-2-fluorophenyl)-3,4-dimethyl-2H-pyrazolo[3,4-d]pyridazin-7-yl)piperidin-1-yl)methyl)pyridin-3-ol] | 500 to 3000 nM | > 500 nM | 
CCOc1ccc(-n2nc3c(C4CCN(CC5CC5)CC4)nnc(C)c3c2C)c(F)c1 [Ex 32, 7-(1-(Cyclopropyl-methyl)piperidin-4-yl)-2-(4-ethoxy-2-fluorophenyl)-3,4-dimethyl-2H-pyrazolo[3,4-d]pyridazine] | 500 to 3000 nM | > 500 nM | 
CCOc1ccc(-n2nc3c(C4CCN(CC5CCOCC5)CC4)nnc(C)c3c2C)c(F)c1 [Ex 33, 2-(4-Ethoxy-2-fluorophenyl)-3,4-dimethyl-7-(1-((tetrahydro-2H-pyran-4-yl)methyl)piperidin-4-yl)-2H-pyrazolo[3,4-d]pyridazine] | 500 to 3000 nM | > 500 nM | 
CCOc1ccc(-n2nc3c(C4CCN(CCC5CCOCC5)CC4)nnc(C)c3c2C)c(F)c1 [Ex 34, 2-(4-Ethoxy-2-fluorophenyl)-3,4-dimethyl-7-(1-(2-(tetrahydro-2H-pyran-4-yl)ethyl)piperidin-4-yl)-2H-pyrazolo[3,4-d]pyridazine] | 3000 to 5000 nM | > 500 nM | 
CCOc1ccc(-n2nc3c(C4CCN(Cc5cn(Cc6ccccn6)nn5)CC4)nnc(C)c3c2C)c(F)c1 [Ex 35, 2-(4-Ethoxy-2-fluorophenyl)-3,4-dimethyl-7-(1-((1-(pyridin-2-ylmethyl)-1H-1,2,3-triazol-4-yl)methyl)piperidin-4-yl)-2H-pyrazolo[3,4-d]pyridazine] | 500 to 3000 nM | > 500 nM | 
CCOc1ccc(-n2nc3c(C4CCCN(Cc5ccccc5)C4)nnc(C)c3c2C)c(F)c1 (stereo not shown) [Ex 36, 7-(1-Benzylpiperidin-3-yl)-2-(4-ethoxy-2-fluorophenyl)-3,4-dimethyl-2H-pyrazolo[3,4-d]pyridazine] | 500 to 3000 nM | > 500 nM | 
CCOc1ccc(-n2nc3c(C4CN(CCc5ccccc5)C4)nnc(C)c3c2C)c(F)c1 [Ex 37, 2-(4-Ethoxy-2-fluorophenyl)-3,4-dimethyl-7-(1-phenethylazetidin-3-yl)-2H-pyrazolo[3,4-d]pyridazine] | 500 to 3000 nM | > 500 nM | 
CCOc1ccc(-n2nc3c(CCCNCc4ccccc4)nnc(C)c3c2C)c(F)c1 [Ex 38, N-Benzyl-3-(2-(4-ethoxy-2-fluorophenyl)-3,4-dimethyl-2H-pyrazolo[3,4-d]pyridazin-7-yl)propan-1-amine] | 500 to 3000 nM | > 500 nM | 
CCOc1ccc(-n2nc3c(CCCN(C)CCc4ccccc4)nnc(C)c3c2C)c(F)c1 [Ex 39, 3-(2-(4-Ethoxy-2-fluorophenyl)-3,4-dimethyl-2H-pyrazolo[3,4-d]pyridazin-7-yl)-N-methyl-N-phenethylpropan-1-amine] | 500 to 3000 nM | > 500 nM | 
CCOc1ccc(-n2nc3c(CCNCc4ccccc4)nnc(C)c3c2C)c(F)c1 [Ex 40, N-Benzyl-2-(2-(4-ethoxy-2-fluorophenyl)-3,4-dimethyl-2H-pyrazolo[3,4-d]pyridazin-7-yl)ethan-1-amine] | ≥ 5000 nM | > 500 nM | 
CCOc1ccc(-n2nc3c(CCNCCc4ccccc4)nnc(C)c3c2C)c(F)c1 [Ex 41, 2-(2-(4-Ethoxy-2-fluorophenyl)-3,4-dimethyl-2H-pyrazolo[3,4-d]pyridazin-7-yl)-N-phenethylethan-1-amine] | ≥ 5000 nM | > 500 nM | 
CCOc1ccc(-n2nc3c(C4CCN(CCc5ccccn5)CC4)nnc(C)c3c2C)c(F)c1 [Ex 42, 2-(4-Ethoxy-2-fluorophenyl)-3,4-dimethyl-7-(1-(2-(pyridin-2-yl)ethyl)piperidin-4-yl)-2H-pyrazolo[3,4-d]pyridazine] | 500 to 3000 nM | > 500 nM | 
CCOc1ccc(-n2nc3c(C4CCN(CCc5ccccc5F)CC4)nnc(C)c3c2C)c(F)c1 [Ex 43, 2-(4-Ethoxy-2-fluorophenyl)-7-(1-(2-fluorophenethyl)piperidin-4-yl)-3,4-dimethyl-2H-pyrazolo[3,4-d]pyridazine] | 500 to 3000 nM |  | < 500 nM
CCOc1ccc(-n2nc3c(C4CCN(CCc5cccc(F)c5)CC4)nnc(C)c3c2C)c(F)c1 [Ex 44, 2-(4-Ethoxy-2-fluorophenyl)-7-(1-(3-fluorophenethyl)piperidin-4-yl)-3,4-dimethyl-2H-pyrazolo[3,4-d]pyridazine] | 500 to 3000 nM |  | < 500 nM
CCOc1ccc(-n2nc3c(C4CCN(CCc5cccc(OC)c5)CC4)nnc(C)c3c2C)c(F)c1 [Ex 45, 2-(4-Ethoxy-2-fluorophenyl)-7-(1-(3-methoxyphenethyl)piperidin-4-yl)-3,4-dimethyl-2H-pyrazolo[3,4-d]pyridazine] | 500 to 3000 nM | > 500 nM | 

More lines, main results first:

Ki [1] | Ki (human μ-opioid receptor; [2]) | SMILES | Ki (human μ-opioid receptor)
500 to 3000 nM | > 500 nM | CCOc1ccc(-n2nc3c(C4CCN(CCc5ccc(F)cc5)CC4)nnc(C)c3c2C)c(F)c1 [Ex 46, 2-(4-Ethoxy-2-fluorophenyl)-7-(1-(4-fluorophenethyl)piperidin-4-yl)-3,4-dimethyl-2H-pyrazolo[3,4-d]pyridazine] | 
500 to 3000 nM | > 500 nM | CCOc1ccc(-n2nc3c(C4CCN(CCc5cccnc5)CC4)nnc(C)c3c2C)c(F)c1 [Ex 47, 2-(4-Ethoxy-2-fluorophenyl)-3,4-dimethyl-7-(1-(2-(pyridin-3-yl)ethyl)piperidin-4-yl)-2H-pyrazolo[3,4-d]pyridazine] | 
500 to 3000 nM | > 500 nM | CCOc1ccc(-n2nc3c(C4CCN(Cc5ncccc5F)CC4)nnc(C)c3c2C)c(F)c1 [Ex 48, 2-(4-Ethoxy-2-fluorophenyl)-7-(1-((3-fluoropyridin-2-yl)methyl)piperidin-4-yl)-3,4-dimethyl-2H-pyrazolo[3,4-d]pyridazine] | 
500 to 3000 nM | > 500 nM | CCOc1ccc(-n2nc3c(C4CCN(Cc5ncccc5C(F)(F)F)CC4)nnc(C)c3c2C)c(F)c1 [Ex 49, 2-(4-Ethoxy-2-fluorophenyl)-3,4-dimethyl-7-(1-((3-(trifluoromethyl)pyridin-2-yl)methyl)piperidin-4-yl)-2H-pyrazolo[3,4-d]pyridazine] | 
500 to 3000 nM | > 500 nM | CCOc1ccc(-n2nc3c(C4CCN(Cc5ncccc5OC)CC4)nnc(C)c3c2C)c(F)c1 [Ex 50, 2-(4-Ethoxy-2-fluorophenyl)-7-(1-((3-methoxypyridin-2-yl)methyl)piperidin-4-yl)-3,4-dimethyl-2H-pyrazolo[3,4-d]pyridazine] | 
500 to 3000 nM | > 500 nM | CCOc1ccc(-n2nc3c(C4CCN(Cc5ncccc5Cl)CC4)nnc(C)c3c2C)c(F)c1 [Ex 51, 7-(1-((3-Chloropyridin-2-yl)methyl)piperidin-4-yl)-2-(4-ethoxy-2-fluorophenyl)-3,4-dimethyl-2H-pyrazolo[3,4-d]pyridazine] | 
3000 to 5000 nM | > 500 nM | CCOc1ccc(-n2nc3c(C4CCN(Cc5cc(C(F)(F)F)ccn5)CC4)nnc(C)c3c2C)c(F)c1 [Ex 52, 2-(4-Ethoxy-2-fluorophenyl)-3,4-dimethyl-7-(1-((4-(trifluoromethyl)pyridin-2-yl)methyl)piperidin-4-yl)-2H-pyrazolo[3,4-d]pyridazine] | 
500 to 3000 nM | > 500 nM | CCOc1ccc(-n2nc3c(C4CCN(Cc5ccc(Cl)cn5)CC4)nnc(C)c3c2C)c(F)c1 [Ex 53, 7-(1-((5-Chloropyridin-2-yl)methyl)piperidin-4-yl)-2-(4-ethoxy-2-fluorophenyl)-3,4-dimethyl-2H-pyrazolo[3,4-d]pyridazine] | 
